In US20240199618A1, “NOVEL N-ACYL-[3-SUBSTITUTED]-[8-SUBSTITUTED]-5,6-DIHYDRO-[1,2,4]TRIAZOLO[4,3-a]PYRAZINES AS SELECTIVE NK-3 RECEPTOR ANTAGONISTS, PHARMACEUTICAL COMPOSITION, METHODS FOR USE IN NK-3 RECEPTOR-MEDIATED DISORDERS” (Ogeda SA, priority 2013, published 2024):
Where two headings read alike, the source gives them in different places.

Legend:
human NK-2 receptor = human NK-2 receptor (Homo sapiens (Human), UniProt P21452); assay: Selectivity assay: [125I]-Neurokinin A binding, human NK-2 receptor; conditions: 0.1 nM [125I]-Neurokinin A, CHO membranes; read-out: hNK-2 (Ki)
Chain of human NK-2 receptor (P21452 whole entry): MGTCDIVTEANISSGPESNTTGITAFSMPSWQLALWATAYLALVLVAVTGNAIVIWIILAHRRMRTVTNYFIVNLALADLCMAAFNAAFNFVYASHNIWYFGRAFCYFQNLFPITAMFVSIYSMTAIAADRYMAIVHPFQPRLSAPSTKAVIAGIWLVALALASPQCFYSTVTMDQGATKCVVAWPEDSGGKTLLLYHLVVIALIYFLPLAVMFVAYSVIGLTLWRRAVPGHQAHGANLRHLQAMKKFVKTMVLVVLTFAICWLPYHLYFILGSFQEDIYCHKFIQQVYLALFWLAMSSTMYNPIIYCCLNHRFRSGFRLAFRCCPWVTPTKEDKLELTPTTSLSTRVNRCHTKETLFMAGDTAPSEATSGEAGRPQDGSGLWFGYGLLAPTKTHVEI
Method: The affinity of compounds of the invention for the NK-2 receptor was evaluated in CHO recombinant cells which express the human NK-2 receptor. Membrane suspensions were prepared from these cells. […] Binding assays were performed in a 25 mM HEPES/1 mM CaCl2)/5 mM MgCl2/0.5% BSA/10 μg/ml saponin, at pH 7.4. […] The radioactivity retained on the filters was measured by using the TopCount-NXT reader (Packard).

human NK-1 receptor = human NK-1 receptor (Homo sapiens (Human), UniProt P25103); assay: Selectivity assay: [3H] substance P binding, human NK-1 receptor; conditions: 2 nM [3H] substance P, CHO membranes; read-out: hNK-1 (Ki)
Chain of human NK-1 receptor (P25103 whole entry): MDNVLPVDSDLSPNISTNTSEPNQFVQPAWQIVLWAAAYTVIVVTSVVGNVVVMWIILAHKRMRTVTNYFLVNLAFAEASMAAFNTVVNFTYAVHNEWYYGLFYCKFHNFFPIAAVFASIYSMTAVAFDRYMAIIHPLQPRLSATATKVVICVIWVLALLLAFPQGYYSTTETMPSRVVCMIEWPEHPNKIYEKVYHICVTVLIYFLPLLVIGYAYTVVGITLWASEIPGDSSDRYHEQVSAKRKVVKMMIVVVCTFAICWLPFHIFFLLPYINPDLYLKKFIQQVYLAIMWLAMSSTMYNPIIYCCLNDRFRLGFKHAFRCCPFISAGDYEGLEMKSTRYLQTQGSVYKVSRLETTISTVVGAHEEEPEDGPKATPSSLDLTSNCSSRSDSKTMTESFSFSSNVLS
Method: Selectivity of the compounds of the invention was determined over the other human NK receptors, namely NK-1 and NK-2 receptors.
The affinity of compounds of the invention for the NK-1 receptor was evaluated in CHO recombinant cells which express the human NK-1 receptor. Membrane suspensions were prepared from these cells. The following radioligand: [^3H] substance P (PerkinElmer Cat #NET111520) was used in this assay. Binding assays were performed in a 50 mM Tris/5 mM MnCl2/150 mM NaCl/0.1% BSA at pH 7.4. Binding assays consisted of 25 μl of membrane suspension (approximately 5 μg of protein/well in a 96 well plate), 50 μl of compound or reference ligand (Substance P) at increasing concentrations (diluted in assay buffer) and 2 nM [^3H] substance P. The plate was incubated 60 min at 25° C. in a water bath and then filtered over GF/C filters (Perkin Elmer, 6005174, presoaked in 0.5% PEI for 2 h at room temperature) with a Filtration unit (Perkin Elmer). The radioactivity retained on the filters was measured by using the TopCount-NXT reader (Packard).

human NK-3 receptor [1] = target: T1, human NK-3 receptor (Homo sapiens (Human), UniProt P29371); assay: 3H-SB222200 binding competition assay with human NK-3 receptor
T1 sequence (P29371 whole entry): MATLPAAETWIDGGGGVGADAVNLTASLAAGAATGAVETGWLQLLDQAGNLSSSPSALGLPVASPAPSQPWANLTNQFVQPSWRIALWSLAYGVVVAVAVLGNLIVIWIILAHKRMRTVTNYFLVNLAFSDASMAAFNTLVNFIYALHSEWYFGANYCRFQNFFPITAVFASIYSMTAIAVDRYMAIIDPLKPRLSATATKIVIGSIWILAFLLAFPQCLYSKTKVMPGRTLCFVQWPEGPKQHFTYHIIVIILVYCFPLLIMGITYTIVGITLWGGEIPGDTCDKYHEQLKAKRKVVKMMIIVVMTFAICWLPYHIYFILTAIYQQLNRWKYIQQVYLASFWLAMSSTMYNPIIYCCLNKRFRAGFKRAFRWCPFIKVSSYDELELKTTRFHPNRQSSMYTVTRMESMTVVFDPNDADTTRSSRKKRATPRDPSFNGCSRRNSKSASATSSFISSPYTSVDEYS
Method: The affinity of compounds of the invention for the human NK-3 receptor was determined by measuring the ability of compounds of the invention to competitively and reversibly displace a well-characterized NK-3 radioligand in a concentration-dependent manner.
^3H-SB222200 Binding Competition Assay with Human NK-3 Receptor
Membranes were prepared from Chinese hamster ovary recombinant cells stably expressing the human NK-3 receptor. The membranes were incubated with 5 nM ^3H-SB222200 (ARC) in a HEPES 25 mM/NaCl 0.1M/CaCl2 1 mM/MgCl2 5 mM/BSA 0.5%/Saponin 10 μg/ml buffer at pH 7.4 and various concentrations of compounds of the invention. The amount of ^3H-SB222200 bound to the receptor was determined after filtration by the quantification of membrane associated radioactivity using the TopCount-NXT reader (Packard).

human NK-3 receptor [2] = target: T1, human NK-3 receptor; assay: Aequorin functional assay with human NK-3 receptor (antagonist testing vs NKA); assay type: cell-based; conditions: CHO cells, NKA at EC80 (3 nM); read-out: Functional assay: Aequorin assay with human NK-3 receptor hNK-3-AEQ (antagonist IC50)
Method: Aequorin Assay with Human NK-3 Receptor
Changes in intracellular calcium levels are a recognized indicator of G protein-coupled receptor activity. The efficacy of compounds of the invention to inhibit NKA-mediated NK-3 receptor activation was assessed by an in vitro Aequorin functional assay. Chinese Hamster Ovary recombinant cells expressing the human NK-3 receptor and a construct that encodes the photoprotein apoaequorin were used for this assay. In the presence of the cofactor coelenterazine, apoaequorin emits a measurable luminescence that is proportional to the amount of intracellular (cytoplasmic) free calcium.
The antagonist activity of compounds of the invention is measured following pre-incubation (3 minutes) of the compound (at various concentrations) with the cells, followed by addition of the reference agonist (NKA) at a final concentration equivalent to the EC80 (3 nM) and recording of emitted light (FDSS 6000 Hamamatsu) over the subsequent 90-second period. The intensity of the emitted light is integrated using the reader software. Compound antagonist activity is measured based on the concentration-dependent inhibition of the luminescence response to the addition of Neurokinin A.

plasma protein = assay: Determination of plasma protein binding (equilibrium dialysis, RED); assay type: in vitro ADME; conditions: 4 hours at 37° C.
Source text: Determination of plasma protein binding The pharmacokinetic and pharmacodynamic properties of chemicals/drugs are largely a function of the reversible binding of chemicals to plasma or serum proteins. […] Consequently, the extent of the plasma protein binding (PPB) of a compound influences its action as well as its distribution and elimination.
The determination of plasma protein binding (PPB) of a compound is enabled by equilibrium dialysis, an accepted and standard method for reliable estimation of the non-bound drug fraction in plasma. RED (Rapid Equilibrium Dialysis) device insert is made of two side-by-side chambers separated by an O-ring-sealed vertical cylinder of dialysis membrane (MWCO ˜8,000). […] After 4 hours incubation at 37° C. under shaking, an aliquot is removed from each chamber and analyzed by a LC-MS/MS procedure enables the determination of both free and bound drug.
The “free fraction” may be calculated as 100%−% rPPB (i.e. the complementary percentage of that disclosed in Table 4, corresponding to the drug concentration that is unbound and therefore available to engage biological target and elicit pharmacological activity).

[3] = Table 2, 5 nM 3H-SB222200, CHO membranes, read-out: Competitive binding assay with human NK-3 receptor hNK-3 (Ki)
[4] = Table 3 (selectivity table), read-out: hNK-3 (Ki)

Row | Ki (human NK-2 receptor) | Ki (human NK-1 receptor) | Ki (human NK-3 receptor [1]; [3]) | Ki (human NK-3 receptor [1]; [4]) | IC50 (human NK-3 receptor [2]) | Exposure (% rPPB), bound drug fraction to plasma protein (plasma protein) | Compound
1 | > 30000 nM | > 30000 nM | 42 nM | 42 nM | 57 nM | 21% | Cc1nsc(-c2nnc3n2CCN(C(=O)c2ccc(F)cc2)C3C)n1 (racemic) [Compound 14, (4-fluorophenyl)(8-methyl-3-(3-methyl-1,2,4-thiadiazol-5-yl)-5,6-dihydro-[1,2,4]triazolo[4,3-a]pyrazin-7(8H)-yl)methanone]
2 | – | – | – | – | – | 34% | CCC1c2nnc(-c3nc(C)ns3)n2CCN1C(=O)c1ccc(F)cc1 (racemic) [Compound 23, (8-ethyl-3-(3-methyl-1,2,4-thiadiazol-5-yl)-5,6-dihydro-[1,2,4]triazolo[4,3-a]pyrazin-7(8H)-yl)(4-fluorophenyl)methanone]
3 | > 30000 nM | > 30000 nM | 70 nM | 70 nM | 64 nM | 31% | Cc1nsc(-c2nnc3n2CCN(C(=O)c2cc(F)c(F)c(F)c2F)C3C)n1 (racemic) [Compound 31, (8-methyl-3-(3-methyl-1,2,4-thiadiazol-5-yl)-5,6-dihydro-[1,2,4]triazolo[4,3-a]pyrazin-7(8H)-yl)(2,3,4,5-tetrafluorophenyl)methanone]
4 | > 30000 nM | > 30000 nM | 59 nM | 59 nM | 44 nM | 25% | Cc1nsc(-c2nnc3n2CCN(C(=O)c2ccc(F)c(F)c2)C3C)n1 (racemic) [Compound 32]
5 | > 30000 nM | > 30000 nM | 89 nM | 89 nM | 120 nM | 29% | Cc1nsc(-c2nnc3n2CCN(C(=O)c2ccc(F)c(F)c2F)C3C)n1 (racemic) [Compound 33, (8-methyl-3-(3-methyl-1,2,4-thiadiazol-5-yl)-5,6-dihydro-[1,2,4]triazolo[4,3-a]pyrazin-7(8H)-yl)(2,3,4-trifluorophenyl)methanone]
6 | > 30000 nM | > 30000 nM | 38 nM | 38 nM | 62 nM | 24% | Cc1nsc(-c2nnc3n2CCN(C(=O)c2cc(F)c(F)c(F)c2)C3C)n1 (racemic) [Compound 34, (8-methyl-3-(3-methyl-1,2,4-thiadiazol-5-yl)-5,6-dihydro-[1,2,4]triazolo[4,3-a]pyrazin-7(8H)-yl)(3,4,5-trifluorophenyl)methanone]
7 | 30000 nM | > 30000 nM | 73 nM | 73 nM | 54 nM | 52% | Cc1nsc(-c2nnc3n2CCN(C(=O)c2ccc(F)c(Cl)c2)C3C)n1 (racemic) [Compound 35, (3-chloro-4-fluorophenyl)(8-methyl-3-(3-methyl-1,2,4-thiadiazol-5-yl)-5,6-dihydro-[1,2,4]triazolo[4,3-a]pyrazin-7(8H)-yl)methanone]
8 | 36000 nM | > 30000 nM | 43 nM | 43 nM | 58 nM | 60% | Cc1nsc(-c2nnc3n2CCN(C(=O)c2ccc(Cl)c(F)c2)C3C)n1 (racemic) [Compound 36, (4-chloro-3-fluorophenyl)(8-methyl-3-(3-methyl-1,2,4-thiadiazol-5-yl)-5,6-dihydro-[1,2,4]triazolo[4,3-a]pyrazin-7(8H)-yl)methanone]
9 | > 30000 nM | 32000 nM | 41 nM | 41 nM | 52 nM | – | Cc1nsc(-c2nnc3n2CCN(C(=O)c2ccc(Cl)cc2)C3C)n1 (racemic) [Compound 37, (4-chlorophenyl)(8-methyl-3-(3-methyl-1,2,4-thiadiazol-5-yl)-5,6-dihydro-[1,2,4]triazolo[4,3-a]pyrazin-7(8H)-yl)methanone]
10 | 28000 nM | 21000 nM | 26 nM | 26 nM | 34 nM | 76% | Cc1nsc(-c2nnc3n2CCN(C(=O)c2ccc(Cl)c(Cl)c2)C3C)n1 (racemic) [Compound 38, (3,4-dichlorophenyl)(8-methyl-3-(3-methyl-1,2,4-thiadiazol-5-yl)-5,6-dihydro-[1,2,4]triazolo[4,3-a]pyrazin-7(8H)-yl)methanone]
11 | > 30000 nM | > 30000 nM | 28 nM | 28 nM | 32 nM | 43% | CCc1nsc(-c2nnc3n2CCN(C(=O)c2ccc(F)cc2)C3C)n1 (racemic) [Compound 39, (3-(3-ethyl-1,2,4-thiadiazol-5-yl)-8-methyl-5,6-dihydro-[1,2,4]triazolo[4,3-a]pyrazin-7(8H)-yl)(4-fluorophenyl)methanone]
12 | > 30000 nM | > 30000 nM | 83 nM | 83 nM | 130 nM | 24% | CCc1noc(-c2nnc3n2CCN(C(=O)c2ccc(F)cc2)C3C)n1 (racemic) [Compound 40, (3-(3-ethyl-1,2,4-oxadiazol-5-yl)-8-methyl-5,6-dihydro-[1,2,4]triazolo[4,3-a]pyrazin-7(8H)-yl)(4-fluorophenyl)methanone]
13 | > 30000 nM | > 30000 nM | 19 nM | 19 nM | 32 nM | – | Cc1nsc(-c2nnc3n2CCN(C(=O)c2ccc(Cl)cc2)[C@@H]3C)n1 [Compound 3, (R)-(4-chlorophenyl)(8-methyl-3-(3-methyl-1,2,4-thiadiazol-5-yl)-5,6-dihydro-[1,2,4]triazolo[4,3-a]pyrazin-7(8H)-yl)methanone]
14 | > 30000 nM | 22000 nM | 32 nM | 32 nM | 73 nM | – | Cc1nsc(-c2nnc3n2CCN(C(=O)c2ccc(F)cc2)[C@@H]3CCO)n1 [Compound 11, (R)-(4-fluorophenyl)(8-(2-hydroxyethyl)-3-(3-methyl-1,2,4-thiadiazol-5-yl)-5,6-dihydro-[1,2,4]triazolo[4,3-a]pyrazin-7(8H)-yl)methanone]
15 | – | – | – | – | – | 24% | COc1cccc(C(=O)N2CCn3c(-c4nc(C)ns4)nnc3[C@H]2C)c1 [Compound 27, (R)-(3-methoxyphenyl)(8-methyl-3-(3-methyl-1,2,4-thiadiazol-5-yl)-5,6-dihydro-[1,2,4]triazolo[4,3-a]pyrazin-7(8H)-yl)methanone]
